Measurements from PubChem BioAssay (NCI).
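At the GI50, growth is halved. TGI: concentration producing complete growth inhibition.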

What was measured:
Test in all cases: inhibition of tumour cell growth, NCI panel, 384-well format
[1] = test system: HT29 colon
[2] = test system: NCI-H522 lung
[3] = test system: SN12C renal
[4] = test system: MOLT-4 leukemia
[5] = test system: SK-OV-3 ovarian
[6] = test system: SF-539 CNS
[7] = test system: SW-620 colon
[8] = test system: EKVX NSCLC
[9] = test system: NCI-H23 lung
[10] = test system: NCI-H460 NSCLC
[11] = test system: SF-295 CNS
[12] = test system: A498 renal
[13] = test system: RXF 393 renal
[14] = test system: HS 578T breast
[15] = test system: NCI-H322M lung
[16] = test system: MDA-MB-468 breast
[17] = test system: HOP-62 NSCLC
[18] = test system: T-47D breast
[19] = test system: SK-MEL-5 melanoma
[20] = test system: DU-145 prostate
[21] = test system: BT-549 breast
[22] = test system: M14 melanoma
[23] = test system: HL-60(TB) leukemia
[24] = test system: OVCAR-4 ovarian
[25] = test system: UACC-257 melanoma
[26] = test system: CAKI-1 renal
[27] = test system: PC-3 prostate
[28] = test system: SK-MEL-2 melanoma
[29] = test system: TK-10 renal
[30] = test system: SK-MEL-28 melanoma
[31] = test system: CCRF-CEM leukemia
[32] = test system: IGROV1 ovarian
[33] = test system: MALME-3M melanoma
[34] = test system: MCF7 breast
[35] = test system: KM12 colon
[36] = test system: ACHN renal
[37] = test system: 786-0 renal
[38] = test system: HCT-15 colon
[39] = test system: OVCAR-8 ovarian
[40] = test system: NCI-H226 lung
[41] = test system: OVCAR-5 ovarian
[42] = test system: HOP-92 NSCLC
[43] = test system: A549 NSCLC
[44] = test system: HCC-2998 colon
[45] = test system: MDA-MB-231 breast
[46] = test system: SNB-19 CNS
[47] = test system: OVCAR-3 ovarian
[48] = test system: COLO 205 colon
[49] = test system: SF-268 CNS
[50] = test system: UACC-62 melanoma
[51] = test system: RPMI-8226 leukemia
[52] = test system: MDA-MB-435 melanoma
[53] = test system: NCI/ADR-RES ovarian
[54] = test system: U251 glioblastoma
[55] = test system: SR leukemia

Q: How did the GI50 [1] turn out when `O=C(O)C(=O)CBr` was run?
A: The GI50 was > 100 µM.

Q: What about the TGI [1] of the same compound?
A: Its TGI is > 100 µM.

Q: And the GI50 [2]?
A: The GI50 was 23.5 µM.

Q: What about the TGI [2] of the same compound?
A: Its TGI is 47.8 µM.

Q: What about the GI50 [3] of the same compound?
A: The GI50 was > 100 µM.

Q: What about the TGI [3] of the same compound?
A: The TGI was > 100 µM.

Q: What about the GI50 [4] of the same compound?
A: Its GI50 is > 100 µM.

Q: What about the TGI [4] of the same compound?
A: The TGI was > 100 µM.

Q: What about the GI50 [5] of the same compound?
A: Its GI50 is > 100 µM.

Q: And the TGI [5]?
A: The TGI was > 100 µM.

Q: And the GI50 [6]?
A: Its GI50 is > 100 µM.

Q: And the TGI [6]?
A: The TGI was > 100 µM.

Q: And the GI50 [7]?
A: The GI50 was > 100 µM.

Q: What about the TGI [7] of the same compound?
A: The TGI was > 100 µM.

Q: And the GI50 [8]?
A: Its GI50 is > 100 µM.

Q: And the TGI [8]?
A: Its TGI is > 100 µM.

Q: And the GI50 [9]?
A: The GI50 was 55.7 µM.

Q: What about the TGI [9] of the same compound?
A: The TGI was > 100 µM.

Q: And the GI50 [10]?
A: The GI50 was > 100 µM.

Q: And the TGI [10]?
A: The TGI was > 100 µM.

Q: What about the GI50 [11] of the same compound?
A: Its GI50 is > 100 µM.

Q: And the TGI [11]?
A: The TGI was > 100 µM.

Q: What about the GI50 [12] of the same compound?
A: Its GI50 is > 100 µM.

Q: What about the TGI [12] of the same compound?
A: Its TGI is > 100 µM.

Q: What about the GI50 [13] of the same compound?
A: The GI50 was 22.5 µM.

Q: What about the TGI [13] of the same compound?
A: Its TGI is 57.1 µM.

Q: What about the GI50 [14] of the same compound?
A: Its GI50 is > 100 µM.

Q: And the TGI [14]?
A: The TGI was > 100 µM.

Q: And the GI50 [15]?
A: Its GI50 is > 100 µM.

Q: And the TGI [15]?
A: The TGI was > 100 µM.

Q: And the GI50 [16]?
A: Its GI50 is 24.7 µM.

Q: What about the TGI [16] of the same compound?
A: Its TGI is 56.8 µM.

Q: And the GI50 [17]?
A: The GI50 was 34.7 µM.

Q: What about the TGI [17] of the same compound?
A: The TGI was > 100 µM.

Q: And the GI50 [18]?
A: Its GI50 is > 100 µM.

Q: And the TGI [18]?
A: Its TGI is > 100 µM.

Q: And the GI50 [19]?
A: The GI50 was > 100 µM.

Q: And the TGI [19]?
A: The TGI was > 100 µM.

Q: What about the GI50 [20] of the same compound?
A: The GI50 was > 100 µM.

Q: What about the TGI [20] of the same compound?
A: Its TGI is > 100 µM.

Q: What about the GI50 [21] of the same compound?
A: Its GI50 is > 100 µM.

Q: What about the TGI [21] of the same compound?
A: Its TGI is > 100 µM.

Q: What about the GI50 [22] of the same compound?
A: Its GI50 is > 100 µM.

Q: What about the TGI [22] of the same compound?
A: Its TGI is > 100 µM.

Q: What about the GI50 [23] of the same compound?
A: The GI50 was 23.9 µM.

Q: And the TGI [23]?
A: Its TGI is 45.3 µM.

Q: What about the GI50 [24] of the same compound?
A: The GI50 was 32.3 µM.

Q: And the TGI [24]?
A: The TGI was > 100 µM.

Q: And the GI50 [25]?
A: Its GI50 is > 100 µM.

Q: What about the TGI [25] of the same compound?
A: Its TGI is > 100 µM.

Q: What about the GI50 [26] of the same compound?
A: The GI50 was > 100 µM.

Q: And the TGI [26]?
A: Its TGI is > 100 µM.

Q: And the GI50 [27]?
A: The GI50 was > 100 µM.

Q: What about the TGI [27] of the same compound?
A: The TGI was > 100 µM.

Q: And the GI50 [28]?
A: Its GI50 is > 100 µM.

Q: And the TGI [28]?
A: Its TGI is > 100 µM.

Q: What about the GI50 [29] of the same compound?
A: The GI50 was > 100 µM.

Q: What about the TGI [29] of the same compound?
A: The TGI was > 100 µM.

Q: What about the GI50 [30] of the same compound?
A: Its GI50 is > 100 µM.

Q: What about the TGI [30] of the same compound?
A: Its TGI is > 100 µM.

Q: And the GI50 [31]?
A: Its GI50 is 43.2 µM.

Q: And the TGI [31]?
A: The TGI was > 100 µM.

Q: What about the GI50 [32] of the same compound?
A: Its GI50 is > 100 µM.

Q: What about the TGI [32] of the same compound?
A: The TGI was > 100 µM.

Q: What about the GI50 [33] of the same compound?
A: The GI50 was > 100 µM.

Q: And the TGI [33]?
A: Its TGI is > 100 µM.

Q: And the GI50 [34]?
A: The GI50 was > 100 µM.

Q: And the TGI [34]?
A: The TGI was > 100 µM.

Q: What about the GI50 [35] of the same compound?
A: The GI50 was > 100 µM.

Q: What about the TGI [35] of the same compound?
A: The TGI was > 100 µM.

Q: What about the GI50 [36] of the same compound?
A: Its GI50 is > 100 µM.

Q: What about the TGI [36] of the same compound?
A: The TGI was > 100 µM.

Q: And the GI50 [37]?
A: The GI50 was > 100 µM.

Q: What about the TGI [37] of the same compound?
A: The TGI was > 100 µM.

Q: And the GI50 [38]?
A: The GI50 was > 100 µM.

Q: And the TGI [38]?
A: The TGI was > 100 µM.

Q: What about the GI50 [39] of the same compound?
A: The GI50 was > 100 µM.

Q: What about the TGI [39] of the same compound?
A: The TGI was > 100 µM.

Q: And the GI50 [40]?
A: The GI50 was > 100 µM.

Q: What about the TGI [40] of the same compound?
A: The TGI was > 100 µM.

Q: And the GI50 [41]?
A: Its GI50 is > 100 µM.

Q: And the TGI [41]?
A: The TGI was > 100 µM.

Q: What about the GI50 [42] of the same compound?
A: Its GI50 is > 100 µM.

Q: What about the TGI [42] of the same compound?
A: Its TGI is > 100 µM.

Q: What about the GI50 [43] of the same compound?
A: The GI50 was > 100 µM.

Q: What about the TGI [43] of the same compound?
A: The TGI was > 100 µM.

Q: And the GI50 [44]?
A: Its GI50 is > 100 µM.

Q: What about the TGI [44] of the same compound?
A: The TGI was > 100 µM.

Q: What about the GI50 [45] of the same compound?
A: The GI50 was > 100 µM.

Q: What about the TGI [45] of the same compound?
A: Its TGI is > 100 µM.

Q: And the GI50 [46]?
A: Its GI50 is > 100 µM.

Q: And the TGI [46]?
A: The TGI was > 100 µM.

Q: And the GI50 [47]?
A: Its GI50 is > 100 µM.

Q: What about the TGI [47] of the same compound?
A: Its TGI is > 100 µM.

Q: And the GI50 [48]?
A: The GI50 was > 100 µM.

Q: And the TGI [48]?
A: Its TGI is > 100 µM.

Q: And the GI50 [49]?
A: The GI50 was > 100 µM.

Q: And the TGI [49]?
A: The TGI was > 100 µM.

Q: What about the GI50 [50] of the same compound?
A: Its GI50 is > 100 µM.

Q: What about the TGI [50] of the same compound?
A: The TGI was > 100 µM.

Q: And the GI50 [51]?
A: The GI50 was > 100 µM.

Q: What about the TGI [51] of the same compound?
A: The TGI was > 100 µM.

Q: And the GI50 [52]?
A: Its GI50 is > 100 µM.

Q: And the TGI [52]?
A: The TGI was > 100 µM.

Q: What about the GI50 [53] of the same compound?
A: The GI50 was > 100 µM.

Q: What about the TGI [53] of the same compound?
A: Its TGI is > 100 µM.

Q: And the GI50 [54]?
A: The GI50 was > 100 µM.

Q: What about the TGI [54] of the same compound?
A: Its TGI is > 100 µM.

Q: What about the GI50 [55] of the same compound?
A: The GI50 was > 100 µM.

Q: And the TGI [55]?
A: The TGI was > 100 µM.
